Experimental data taken from US10836775B2, “6,6-fused heteroaryl piperidine ether allosteric modulators of the M4 muscarinic acetylcholine receptor” (Merck Sharp & Dohme Corp., priority 2016, dated 2020).

Target: T1, human M4 muscarinic acetylcholine receptor (Homo sapiens, UniProt P08173)
T1 construct: expressed in transfected cells; host or cells: CHO-K1
T1 sequence (P08173 1-479): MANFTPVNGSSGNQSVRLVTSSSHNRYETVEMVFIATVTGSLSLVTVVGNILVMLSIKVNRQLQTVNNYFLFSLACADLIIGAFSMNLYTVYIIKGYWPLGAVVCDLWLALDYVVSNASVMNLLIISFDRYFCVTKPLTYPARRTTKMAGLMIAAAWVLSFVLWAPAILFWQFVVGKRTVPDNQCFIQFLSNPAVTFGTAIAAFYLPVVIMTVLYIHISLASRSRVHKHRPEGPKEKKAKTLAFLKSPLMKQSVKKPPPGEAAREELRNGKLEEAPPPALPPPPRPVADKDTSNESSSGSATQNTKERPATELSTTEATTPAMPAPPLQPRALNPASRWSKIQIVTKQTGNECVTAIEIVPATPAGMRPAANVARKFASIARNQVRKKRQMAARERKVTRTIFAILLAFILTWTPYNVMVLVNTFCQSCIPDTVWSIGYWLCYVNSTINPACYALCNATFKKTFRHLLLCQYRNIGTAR
Experiment: human FLIPR-based M4 PAM assay (CHO-K1 cells, human M4 receptor and Gαqi5, calcium dye fluorescence, acetylcholine at 20% of maximum)
Assay type: cell-based
Details: inflection point (IP) of 4 parameter logistic dose response curve; CHO-K1 cells with human M4 receptor and Gαqi5; FLIPR Tetra
Method: In a typical experiment the M4 muscarinic acetylcholine receptor modulating activity of the compounds of the present invention was determined in accordance with the following experimental method. […] On the day of assay, growth medium is removed, the cells are washed 2 times with wash buffer, and cells are incubated in dye loading buffer at 37° C., 5% CO2 for ˜1 hour. […] Next, 10 uL of acetylcholine is added (final concentration calculated so as to achieve 20% of the maximum acetycholine response), and the fluorescence reading is continued for 3.5 min. In some cases, a third addition of acetylcholine (final concentration calculated to achieve 70% of the maximal acetylcholine response) is performed. The resulting dose response curves are fit to a 4 parameter logistic equation and the final result is determined as the inflection point (IP) of the curve
CHO-K1 cells stably transfected with human M4 receptor and chimeric G-protein Gαqi5 are thawed from liquid N2 storage, resuspended in growth medium, plated in black, clear bottom 384 well plates, and incubated 16-20 hours at 37° C., 5% CO2.
On the day of assay, growth medium is removed, the cells are washed 2 times with wash buffer, and cells are incubated in dye loading buffer at 37° C., 5% CO2 for ˜1 h. […] Next, 10 uL of acetylcholine is added (final concentration calculated so as to achieve 20% of the maximum acetycholine response), and the fluorescence reading is continued for 3.5 min. In some cases, a third addition of acetylcholine (final concentration calculated to achieve 70% of the maximal acetylcholine response) is performed.

**Q.** For `Cc1cc2c(=O)[nH]c(=O)[nH]c2nc1N1CCC(OCC2CC2)CC1` [Example 33, 7-(4-(cyclopropyl-methoxy)piperidin-1-yl)-6-methylpyrido[2,3-d]pyrimidine-2,4(1H,3H)-dione], which EC50 is on record?
**A.** 52 nM

**Q.** How did the EC50 turn out when `Cc1cc2c(=O)[nH]c(=O)[nH]c2nc1N1CCC(OCC2CCCCC2)CC1` [Example 34, 7-(4-(cyclohexyl-methoxy)piperidin-1-yl)-6-methylpyrido[2,3-d]pyrimidine-2,4(1H,3H)-dione] was run?
**A.** 361 nM

**Q.** Which EC50 does the source give for `COc1ccc(OC2CCN(c3nc4occc(=O)c4cc3C)CC2)cn1` [Example 35, 7-(4-((6-methoxypyridin-3-yl)oxy)piperidin-1-yl)-6-methyl-4H-pyrano[2,3-b]pyridin-4-one] here?
**A.** 38 nM

**Q.** How did the EC50 turn out when `Cc1cc2c(=O)[nH]c(=O)[nH]c2nc1N1CCC(OCC(C)C)CC1` [Example 36, 7-(4-isobutoxy-piperidin-1-yl)-6-methylpyrido[2,3-d]pyrimidine-2,4(1H,3H)-dione] was run?
**A.** 138 nM

**Q.** `CCc1cc2c(=O)[nH]ncc2nc1N1CCC(Oc2ccc(OC)nc2)CC1` [Example 37, 3-ethyl-2-(4-((6-methoxypyridin-3-yl)oxy)piperidin-1-yl)pyrido[2,3-d]pyridazin-5(6H)-one] was tested. Which EC50 did it give?
**A.** 71 nM

**Q.** Which EC50 does the source give for `Cc1cc2c(=O)[nH]c(=O)[nH]c2nc1N1CCC(OCC2CCCC2)CC1` [Example 38, 7-(4-(cyclopentyl-methoxy)piperidin-1-yl)-6-methylpyrido[2,3-d]pyrimidine-2,4(1H,3H)-dione] here?
**A.** 112 nM

**Q.** Which EC50 does the source give for `COCc1nc2nc(N3CCC(Oc4cccc(C#N)c4)CC3)c(C)cc2c(=O)[nH]1` [Example 39, 3-((1-(2-(methoxymethyl)-6-methyl-4-oxo-3,4-dihydropyrido[2,3-d]pyrimidin-7-yl)piperidin-4-yl)oxy)benzonitrile] here?
**A.** 32 nM

**Q.** `COc1ccc(OC2CCN(c3nc4nc(C)n(C)c(=O)c4cc3C)CC2)cn1` [Example 40, 7-(4-((6-methoxypyridin-3-yl)oxy)piperidin-1-yl)-2,3,6-trimethyl-pyrido[2,3-d]pyrimidin-4(3H)-one] was tested. Which EC50 did it give?
**A.** 155 nM

**Q.** With `COc1ccc(OC2CCN(c3nc4oc(C)cc(=O)c4cc3C)CC2)cn1` [Example 41, 7-(4-((6-methoxypyridin-3-yl)oxy)piperidin-1-yl)-2,6-dimethyl-4H-pyrano[2,3-b]pyridin-4-one] as the molecule, how does the EC50 read?
**A.** 100 nM

**Q.** For `COc1ccc(OC2CCN(c3nc4cnn(CCO)c(=O)c4cc3C)CC2)cn1` [Example 42, 6-(2-Hydroxyethyl)-2-(4-((6-methoxypyridin-3-yl)oxy)piperidin-1-yl)-3-methylpyrido[2,3-d]pyridazin-5(6H)-one], which EC50 is on record?
**A.** 110 nM

**Q.** For `Cc1cc2c(=O)n(CCO)ncc2nc1N1CCC(OCC2(C)CC2)CC1` [Example 43, 6-(2-hydroxyethyl)-3-methyl-2-(4-((1-methylcyclopropyl)methoxy)piperidin-1-yl)pyrido[2,3-d]pyridazin-5(6H)-one], which EC50 is on record?
**A.** 133 nM

**Q.** How did the EC50 turn out when `COc1ccc(OC2CCN(c3nc4ncn(C)c(=O)c4cc3C)CC2)cn1` [Example 44, 7-(4-((6-Methoxypyridin-3-yl)oxy)piperidin-1-yl)-3,6-dimethylpyrido[2,3-d]pyrimidin-4(3H)-one] was run?
**A.** 135 nM

**Q.** `Cc1cc2c(=O)n(C)c(C)nc2nc1N1CCC(Oc2cnc3c(c2)COC3)CC1` [Example 45, 7-(4-((5,7-dihydrofuro[3,4-b]pyridin-3-yl)oxy)piperidin-1-yl)-2,3,6-trimethyl-pyrido[2,3-d]pyrimidin-4(3H)-one] was tested. Which EC50 did it give?
**A.** 361 nM

**Q.** Which EC50 does the source give for `COc1ccc(OC2CCN(c3nc4c(cc3C)CCNC4=O)CC2)cn1` [Example 46, 2-(4-((6-Methoxypyridin-3-yl)oxy)piperidin-1-yl)-3-methyl-6,7-dihydro-1,7-naphthyridin-8(51H)-one] here?
**A.** 587 nM

**Q.** For `COc1ccc(OC2CCN(c3nc4[nH]c(=O)oc(=O)c4cc3C)CC2)cn1` [Example 47, 7-(4-((6-Methoxypyridin-3-yl)oxy)piperidin-1-yl)-6-methyl-2H-pyrido[2,3-d][1,3]oxazine-2,4(1H)-dione], which EC50 is on record?
**A.** 78 nM

**Q.** For `COc1ccc(OC2CCN(c3nc4c(cc3C)CNC(=O)N4)CC2)cn1` [Example 48, 7-(4-((6-Methoxypyridin-3-yl)oxy)piperidin-1-yl)-6-methyl-3,4-dihydropyrido[2,3-d]pyrimidin-2(1H)-one], which EC50 is on record?
**A.** 272 nM

**Q.** How did the EC50 turn out when `COc1ccc(OC2CCN(c3nc4c(cnc(=O)n4C)cc3C)CC2)cn1` [Example 49, 7-(4-((6-Methoxypyridin-3-yl)oxy)piperidin-1-yl)-1,6-dimethylpyrido[2,3-d]pyrimidin-2(1H)-one] was run?
**A.** 210 nM

**Q.** With `COc1ccc(OC2CCN(c3nc4[nH]c(=N)[nH]c(=O)c4cc3C)CC2)cn1` [Example 50, 2-Imino-7-(4-((6-methoxypyridin-3-yl)oxy)piperidin-1-yl)-6-methyl-2,3-dihydropyrido[2,3-d]pyrimidin-4(1H)-one] as the molecule, how does the EC50 read?
**A.** 469 nM

**Q.** Which EC50 does the source give for `COc1ccc(OC2CCN(c3nc4cnn(CO)c(=O)c4cc3C)CC2)cn1` [Example 51, 6-(Hydroxymethyl)-2-(4-((6-methoxypyridin-3-yl)oxy)piperidin-1-yl)-3-methylpyrido[2,3-d]pyridazin-5(6H)-one] here?
**A.** 46 nM

**Q.** `COc1ccc(OC2CCN(c3nc4oc(=O)[nH]c(=O)c4cc3C)CC2)cn1` [Example 52, 7-(4-((6-Methoxypyridin-3-yl)oxy)piperidin-1-yl)-6-methyl-2H-pyrido[3,2-e][1,3]oxazine-2,4(3H)-dione] was tested. Which EC50 did it give?
**A.** 15 nM

**Q.** `COc1ccc(OC2CCN(c3nc4c(=O)[nH][nH]c(=O)c4cc3C)CC2)cn1` [Example 53, 2-(4-((6-Methoxypyridin-3-yl)oxy)piperidin-1-yl)-3-methyl-6,7-dihydropyrido[2,3-d]pyridazine-5,8-dione] was tested. Which EC50 did it give?
**A.** 260 nM

**Q.** Which EC50 does the source give for `COc1ccc(OC2CCN(c3nc4ccoc(=O)c4cc3C)CC2)cn1` [Example 54, 2-(4-((6-Methoxypyridin-3-yl)oxy)piperidin-1-yl)-3-methyl-5H-pyrano[4,3-b]pyridin-5-one] here?
**A.** 85 nM

**Q.** `COc1ccc(OC2CCN(c3nc4cc(C)oc(=O)c4cc3C)CC2)cn1` [Example 55, 2-(4-((6-Methoxypyridin-3-yl)oxy)piperidin-1-yl)-3,7-dimethyl-5H-pyrano[4,3-b]pyridin-5-one] was tested. Which EC50 did it give?
**A.** 70 nM
